Data: the supplement of paper PMC10307832

Columns and labels:
Experiment in all cases: relative viability (nuclei count vs DMSO), 5 days (fraction); higher = more cells survive
NCI-H1944 = system: NCI-H1944
Summary of the method: (§1)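 Relative viability is defined as nuclei in treated wells over nuclei in vehicle wells. Duplicate plates were run and medians reported. Lung cancer cell lines in 1536-well plates were dosed by pin tool one day after seeding, with one drug or with a fixed anchor-drug dose plus five library-drug doses (not always all listed) in √10 steps, and nuclei were counted after 5 days.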

HCC-44 = system: HCC-44
Summary of the method: as §1

NCI-H322M = system: NCI-H322M
Summary of the method: as §1

NCI-H358 = system: NCI-H358
Summary of the method: as §1

ABC-1 = system: ABC-1
Summary of the method: as §1

HCC-827 = system: HCC-827
Summary of the method: as §1

NCI-H1793 = system: NCI-H1793
Summary of the method: as §1

LU99A = system: LU99A
Summary of the method: as §1

NCI-H1792 = system: NCI-H1792
Summary of the method: as §1

ChaGo-K-1 = system: ChaGo-K-1
Summary of the method: as §1

NCI-H2126 = system: NCI-H2126
Summary of the method: as §1

NCI-H1395 = system: NCI-H1395
Summary of the method: as §1

NCI-H1666 = system: NCI-H1666
Summary of the method: as §1

NCI-H3122 = system: NCI-H3122
Summary of the method: as §1

CAL-12T = system: CAL-12T
Summary of the method: as §1

NCI-H2347 = system: NCI-H2347
Summary of the method: as §1

LXF-289 = system: LXF-289
Summary of the method: as §1

RERF-LC-KJ = system: RERF-LC-KJ
Summary of the method: as §1

SK-LU-1 = system: SK-LU-1
Summary of the method: as §1

NCI-H520 = system: NCI-H520
Summary of the method: as §1

NCI-H1755 = system: NCI-H1755
Summary of the method: as §1

LCLC-103H = system: LCLC-103H
Summary of the method: as §1

## Cc1csc(=NC2CCCCC2)n1/N=C/c1ccc(O)c(O)c1O [MIM1] + COc1cccc2cc(-c3nc([C@H]4CC[C@H](C(=O)O)CC4)n4ncnc(N)c34)[nH]c12 [OSI-027] (partner 0.5 µM)
NCI-H1944; first compound 0.2 µM
  relative viability: 0.441
NCI-H1944; first compound 0.6325 µM
  relative viability: 0.44
NCI-H1944; first compound 2 µM
  relative viability: 0.334
NCI-H1944; first compound 6.325 µM
  relative viability: 0.365
NCI-H1944; first compound 20 µM
  relative viability: 0.285
HCC-44; first compound 0.2 µM
  relative viability: 0.699
HCC-44; first compound 0.6325 µM
  relative viability: 0.5
HCC-44; first compound 2 µM
  relative viability: 0.271
HCC-44; first compound 6.325 µM
  relative viability: 0.448
HCC-44; first compound 20 µM
  relative viability: 0.184
NCI-H322M; first compound 0.2 µM
  relative viability: 0.593
NCI-H322M; first compound 0.6325 µM
  relative viability: 0.526
NCI-H322M; first compound 2 µM
  relative viability: 0.543
NCI-H322M; first compound 6.325 µM
  relative viability: 0.508
NCI-H322M; first compound 20 µM
  relative viability: 0.288
NCI-H358; first compound 0.2 µM
  relative viability: 0.772
NCI-H358; first compound 0.6325 µM
  relative viability: 0.7
NCI-H358; first compound 2 µM
  relative viability: 0.755
NCI-H358; first compound 6.325 µM
  relative viability: 0.447
NCI-H358; first compound 20 µM
  relative viability: 0.128
ABC-1; first compound 0.2 µM
  relative viability: 0.481
ABC-1; first compound 0.6325 µM
  relative viability: 0.46
ABC-1; first compound 2 µM
  relative viability: 0.388
ABC-1; first compound 6.325 µM
  relative viability: 0.236
ABC-1; first compound 20 µM
  relative viability: 0.298
HCC-827; first compound 0.2 µM
  relative viability: 0.758
HCC-827; first compound 0.6325 µM
  relative viability: 0.775
HCC-827; first compound 2 µM
  relative viability: 0.695
HCC-827; first compound 6.325 µM
  relative viability: 0.529
HCC-827; first compound 20 µM
  relative viability: 0.187
NCI-H1793; first compound 0.2 µM
  relative viability: 0.273
NCI-H1793; first compound 2 µM
  relative viability: 0.247
NCI-H1793; first compound 6.325 µM
  relative viability: 0.256
NCI-H1793; first compound 20 µM
  relative viability: 0.287
LU99A; first compound 0.2 µM
  relative viability: 0.274
LU99A; first compound 0.6325 µM
  relative viability: 0.29
LU99A; first compound 2 µM
  relative viability: 0.273
LU99A; first compound 6.325 µM
  relative viability: 0.288
LU99A; first compound 20 µM
  relative viability: 0.233
NCI-H1792; first compound 0.2 µM
  relative viability: 0.737
NCI-H1792; first compound 0.6325 µM
  relative viability: 0.807
NCI-H1792; first compound 2 µM
  relative viability: 0.791
NCI-H1792; first compound 6.325 µM
  relative viability: 0.578
NCI-H1792; first compound 20 µM
  relative viability: 0.596
ChaGo-K-1; first compound 0.2 µM
  relative viability: 0.597
ChaGo-K-1; first compound 0.6325 µM
  relative viability: 0.433
ChaGo-K-1; first compound 2 µM
  relative viability: 0.535
ChaGo-K-1; first compound 6.325 µM
  relative viability: 0.387
ChaGo-K-1; first compound 20 µM
  relative viability: 0.159
NCI-H2126; first compound 0.2 µM
  relative viability: 0.758
NCI-H2126; first compound 0.6325 µM
  relative viability: 0.672
NCI-H2126; first compound 2 µM
  relative viability: 0.732
NCI-H2126; first compound 6.325 µM
  relative viability: 0.657
NCI-H2126; first compound 20 µM
  relative viability: 0.466
NCI-H1395; first compound 0.2 µM
  relative viability: 0.592
NCI-H1395; first compound 0.6325 µM
  relative viability: 0.63
NCI-H1395; first compound 2 µM
  relative viability: 0.618
NCI-H1395; first compound 6.325 µM
  relative viability: 0.508
NCI-H1395; first compound 20 µM
  relative viability: 0.374
NCI-H1666; first compound 0.2 µM
  relative viability: 0.957
NCI-H1666; first compound 0.6325 µM
  relative viability: 0.9
NCI-H1666; first compound 2 µM
  relative viability: 0.804
NCI-H1666; first compound 6.325 µM
  relative viability: 0.639
NCI-H1666; first compound 20 µM
  relative viability: 0.459
NCI-H3122; first compound 0.2 µM
  relative viability: 1.04
NCI-H3122; first compound 0.6325 µM
  relative viability: 1.11
NCI-H3122; first compound 2 µM
  relative viability: 0.904
NCI-H3122; first compound 6.325 µM
  relative viability: 0.398
NCI-H3122; first compound 20 µM
  relative viability: 0.175
CAL-12T; first compound 0.2 µM
  relative viability: 0.607
CAL-12T; first compound 0.6325 µM
  relative viability: 0.579
CAL-12T; first compound 2 µM
  relative viability: 0.57
CAL-12T; first compound 6.325 µM
  relative viability: 0.445
CAL-12T; first compound 20 µM
  relative viability: 0.143
NCI-H2347; first compound 0.2 µM
  relative viability: 0.41
NCI-H2347; first compound 0.6325 µM
  relative viability: 0.449
NCI-H2347; first compound 2 µM
  relative viability: 0.437
NCI-H2347; first compound 6.325 µM
  relative viability: 0.392
NCI-H2347; first compound 20 µM
  relative viability: 0.287
LXF-289; first compound 0.2 µM
  relative viability: 0.782
LXF-289; first compound 0.6325 µM
  relative viability: 0.586
LXF-289; first compound 2 µM
  relative viability: 0.806
LXF-289; first compound 6.325 µM
  relative viability: 0.686
LXF-289; first compound 20 µM
  relative viability: 0.441
RERF-LC-KJ; first compound 0.2 µM
  relative viability: 0.555
RERF-LC-KJ; first compound 0.6325 µM
  relative viability: 0.629
RERF-LC-KJ; first compound 2 µM
  relative viability: 0.403
RERF-LC-KJ; first compound 6.325 µM
  relative viability: 0.313
RERF-LC-KJ; first compound 20 µM
  relative viability: 0.195
SK-LU-1; first compound 0.2 µM
  relative viability: 0.394
SK-LU-1; first compound 0.6325 µM
  relative viability: 0.389
SK-LU-1; first compound 2 µM
  relative viability: 0.41
SK-LU-1; first compound 6.325 µM
  relative viability: 0.316
SK-LU-1; first compound 20 µM
  relative viability: 0.325
NCI-H520; first compound 0.2 µM
  relative viability: 0.245
NCI-H520; first compound 0.6325 µM
  relative viability: 0.22
NCI-H520; first compound 2 µM
  relative viability: 0.249
NCI-H520; first compound 6.325 µM
  relative viability: 0.24
NCI-H520; first compound 20 µM
  relative viability: 0.25
NCI-H1755; first compound 0.2 µM
  relative viability: 0.833
NCI-H1755; first compound 0.6325 µM
  relative viability: 0.69
NCI-H1755; first compound 2 µM
  relative viability: 0.779
NCI-H1755; first compound 6.325 µM
  relative viability: 0.703
NCI-H1755; first compound 20 µM
  relative viability: 0.223
LCLC-103H; first compound 0.2 µM
  relative viability: 0.467
LCLC-103H; first compound 0.6325 µM
  relative viability: 0.422
LCLC-103H; first compound 2 µM
  relative viability: 0.468
LCLC-103H; first compound 6.325 µM
  relative viability: 0.435
LCLC-103H; first compound 20 µM
  relative viability: 0.304
